Source: US4393058A, “Cephalosporin compounds” (Meiji Seika Kaisha, Ltd., priority 1979, dated 1983)
Values after ≈ are worked out from the molar mass of the structure shown. Structures can show the parent of a compound that is named as a salt.

Key:
[1] = test system: Staphylococcus aereus 209PJC-1; test: Minimum Inhibitory Concentration by Agar Plate Dilution Method; type: cell-based; conditions: 209PJC1
[2] = test system: Staphylococcus aereus Smith S-424; test: as above; type: cell-based; conditions: SMITHS424
[3] = test system: Bacillus anthracis No. 119; test: microbe, parasite or virus in culture; type: cell-based; conditions: NO.119, read-out: Minimum Inhibitory Concentration
[4] = test system: Escherichia coli GN 206 (CSase); test: Minimum Inhibitory Concentration by Agar Plate Dilution Method; type: cell-based; conditions: GN206
[5] = test system: Citrobacter freundii GN 346 (CSase); test: as above; type: cell-based; conditions: GN346
[6] = test system: Klebsiella pneumoniae GN 69 (PCase); test: as above; type: cell-based; conditions: GN69
[7] = test system: Proteus morganii 1510 (CSase); test: as above; type: cell-based; conditions: Morganella morganii
[8] = test system: Proteus rettgeri GN 624 (CSase); test: as above; type: cell-based; conditions: Providencia rettgeri, GN624
Proteus vulgaris OX 19 = test: as above; type: cell-based; conditions: OX19
[9] = test system: Serratia marcescens No. 1; test: as above; type: cell-based
[10] = test system: Serratia species GN 629 (CSase); test: as above; type: cell-based; conditions: GN629
[11] = test system: Pseudomonas aeruginosa IAM-1007; test: as above; type: cell-based; conditions: IAM1007
[12] = test system: Pseudomonas aeruginosa M-0025; test: as above; type: cell-based; conditions: M0025
[13] = test system: Pseudomonas cepacia M-0527; test: as above; type: cell-based; conditions: Burkholderia cepacia, M0527
Maltophilia 604 = test: as above; type: cell-based
[14] = test system: Gram-positive and Gram-negative bacteria, including Pseudomonas aeruginosa; conditions: conventional cephalosporin series antibiotics; cited from earlier work
[15] = test system: Pseudomonas cepacia TMS 199, KM 425; test: Minimum Inhibitory Concentration by Agar Plate Dilution Method; type: cell-based; conditions: Burkholderia cepacia
mice = test: Acute toxicity, intraperitoneal administration to mice; type: in vivo; conditions: six mice, intraperitoneally 1,000 mg/kg
Description: The toxicity of the compounds according to this invention is very low. None of the six mice administered intraperitoneally 1,000 mg/kg of the compound of Example 2 died. Therefore, the compounds of this invention have very low toxicity. In addition, they have a wide antibacterial spectrum and are very effective in treating infectious diseases, as compared with the conventional cephalosporin series antibiotics such as cephalotin, cefazolin, cephalexin and cephaloridine.

CCN1CCN(C(=O)N[C@@H](C(=O)N[C@@H]2C(=O)N3[C@@H]2SC(C)(C)[C@@H]3C(=O)O)c2ccccc2)C(=O)C1=O [Example T-1220, piperacillin, reference compound]
MIC [1]: 0.78 µg/mL (≈ 1.51 µM) | MIC [2]: 1.56 µg/mL (≈ 3.01 µM) | MIC [3]: 0.78 µg/mL (≈ 1.51 µM) | MIC [4]: 25 µg/mL (≈ 48.3 µM) | MIC [5]: 100 µg/mL (≈ 193 µM) | MIC [6]: 50 µg/mL (≈ 96.6 µM) | MIC [7]: 50 µg/mL (≈ 96.6 µM) | MIC [8]: 0.78 µg/mL (≈ 1.51 µM) | MIC (Proteus vulgaris OX 19): 1.56 µg/mL (≈ 3.01 µM) | MIC [9]: 1.56 µg/mL (≈ 3.01 µM) | MIC [10]: 25 µg/mL (≈ 48.3 µM) | MIC [11]: 12.5 µg/mL (≈ 24.2 µM) | MIC [12]: 6.25 µg/mL (≈ 12.1 µM) | MIC [13]: 1.56 µg/mL (≈ 3.01 µM) | MIC (Maltophilia 604): 200 µg/mL (≈ 386 µM)

O=C(Cc1cccs1)N[C@@H]1C(=O)N2C(C(=O)[O-])=C(C[n+]3ccccc3)CS[C@H]12 [cephaloridine]
control of Gram-negative bacilli typified by Pseudomonas aeruginosa [14]: cannot be controlled

COc1ccc(COc2ccc(-c3ccc(C(=O)N[C@@H](C(=O)NC4C(=O)N5C(C(=O)O)=C(CSc6nnnn6C)CSC45)c4ccc(O)cc4)c(=O)[nH]3)cc2OC)cc1OC (single isomer, unassigned) [Example 5, sodium salt of 7-{D(-)-α-[6-[4-(3,4-dimethoxybenzyloxy)-3-methoxyphenyl]-1,2-dihydro-2-oxopyridine-3-carbonylamino]-p-hydroxyphenylacetamido}-3-(1-methyl-1,2,3,4-tetrazol-5-ylthiomethyl)-3-cephem-4-carboxylic acid]
MIC [1]: 0.78 µg/mL | MIC [2]: 0.78 µg/mL | MIC [3]: 0.2 µg/mL | MIC [4]: 0.2 µg/mL | MIC [5]: 0.78 µg/mL | MIC [6]: 6.25 µg/mL | MIC [7]: 12.5 µg/mL | MIC [8]: 3.13 µg/mL | MIC (Proteus vulgaris OX 19): 0.39 µg/mL | MIC [9]: 3.13 µg/mL | MIC [10]: 12.5 µg/mL | MIC [11]: 12.5 µg/mL | MIC [12]: 3.13 µg/mL | MIC [13]: 6.25 µg/mL | MIC [15]: 6.25 µg/mL | MIC (Maltophilia 604): 12.5 µg/mL

CC1=C(C(=O)O)N2C(=O)[C@@H](NC(=O)[C@H](N)c3ccccc3)[C@H]2SC1 [cephalexin]
control of Gram-negative bacilli typified by Pseudomonas aeruginosa [14]: cannot be controlled

COc1ccc(-c2ccc(C(=O)N[C@@H](C(=O)NC3C(=O)N4C(C(=O)O)=C(CSc5nnnn5C)CSC34)c3ccc(O)cc3)c(=O)[nH]2)cc1OC (single isomer, unassigned) [Example 2, sodium salt of 7-{D(-)-α-[6-(3,4-dimethoxyphenyl)-1,2-dihydro-2-oxopyridine-3-carbonylamino]-p-hydroxyphenylacetamido}-3-(1-methyl-1,2,3,4-tetrazol-5-ylthiomethyl)-3-cephem-4-carboxylic acid]
MIC [1]: 0.78 µg/mL | MIC [2]: 0.78 µg/mL | MIC [3]: 1.56 µg/mL | MIC [4]: 3.13 µg/mL | MIC [5]: 3.13 µg/mL | MIC [6]: 12.5 µg/mL | MIC [7]: 25 µg/mL | MIC [8]: 12.5 µg/mL | MIC (Proteus vulgaris OX 19): 0.78 µg/mL | MIC [9]: 3.13 µg/mL | MIC [10]: 12.5 µg/mL | MIC [11]: 6.25 µg/mL | MIC [12]: 3.13 µg/mL | MIC [13]: 6.25 µg/mL | MIC [15]: 6.25 µg/mL | MIC (Maltophilia 604): 6.25 µg/mL | mice that died (mice): None

Cc1nnc(SCC2=C(C(=O)O)N3C(=O)[C@@H](NC(=O)Cn4cnnn4)[C@H]3SC2)s1 [cefazolin]
control of Gram-negative bacilli typified by Pseudomonas aeruginosa [14]: cannot be controlled

CC(=O)OCC1=C(C(=O)O)N2C(=O)[C@@H](NC(=O)Cc3cccs3)[C@H]2SC1 [cephalotin]
control of Gram-negative bacilli typified by Pseudomonas aeruginosa [14]: cannot be controlled
